Laboratory results from patent US10174032B2, “Heterocyclic compound classes for signaling modulation” (SignalRx Pharmaceuticals, Inc., priority 2014, dated 2019).

Key:
BRD4 = BRD4 (Homo sapiens, UniProt O60885); assay: BRD4 inhibition assay of CAL101; type: binding; details: no significant BRD4 inhibition
mTOR = mTOR (Homo sapiens, UniProt P42345); assay: Kinase inhibition assay, P-33 labelled ATP phosphate transfer, mTOR; type: biochemical; details: read-out: mTOR(% Inh at 300 nM)
Protocol: (§1) The assays determined the amount of radioactive phosphate transferred from P-33 labelled ATP to the substrate by the enzyme in the presence of various concentrations of the inhibitor test compounds. […] After this time period the cells were serum starved for 5 hours followed by application of the test compound. Test compound was added as a DMSO (dimethyl sulfoxide) solution such that the final DMSO concentration in the cell media was less than or equal to 0.2% by volume. After 30 minutes of exposure the growth factor stimulant, human IGF-1 (Pepro Tech, Inc., Rocky Hill, N.J., Cat.#100-11), was added in each well. […] A SpectraMax Plus spectrophotometric plate reader (Molecular Devices, Sunnydale, Calif.) was used to measure the optical density signal for pAKT at 450 nm (OD450 nm). The pAKT OD450 nm readings were normalized by total protein amount in the cell lysates determined by standard methods. Concentrations of test compounds required to inhibit IGF stimulated pAKT levels to 50% of maximum levels in PC3 cells (termed DM50 for decreased maximum 50%) were calculated by inputting the dose responses in the software package GraphPad Prism4 (GraphPad Software, Inc., San Diego, Calif.).

PI3K-alpha = PI3K-alpha (Homo sapiens, UniProt P42336); assay: Kinase inhibition assay, P-33 labelled ATP phosphate transfer, PI3K-alpha; type: biochemical
Protocol: as §1

PC3 cells = assay: PC3 cell proliferation (WST, 72 hours); type: cell-based; details: Homo sapiens, PC-3; PC3 cells, 72 hours, WST; read-out: PC3 cell proliferation(IC50 μM)
Protocol: The PC3 cell proliferation data in column 26 of Table 5 was obtained as follows: PC3 cells were obtained from the American Type Culture Collection (ATCC, Manassas, Va., Cat.#CRL-1435). Two thousand cells from the prostate cancer line PC3 were placed in 50 μL of complete RPMI 1640 media (Invitrogen, Carlsbad, Calif., Cat.#22400-105) with 10% fetal bovine serum, (Invitrogen, Carlsbad, Calif., Cat.#10438-026) into each well of 96-well cell culture plates in a hexaplicate sampling pattern. A 50 μL aliquot of test compound (prepared from stock test compounds in DMSO diluted into media) was added to the appropriate well such that the final concentrations of test compound were 200, 40, 8, 1.6, 0.32, 0.064, 0.0128, 0.00256, and 0 μM and the final DMSO concentration was less than or equal to 0.2% . The plates were incubated for 72 hours 37° C. in an atmosphere of 5% CO2. At the end of this time a 10 μL aliquot of WST solution (Roche Applied Science, Mannheim, Germany) was added into each of the wells. Cells were exposed to the WST solution for 4 hours. A SpectraMax Plus spectrophotometric plate reader (Molecular Devices, Sunnydale, Calif.) was then used to measure the optical density at 450 nm (OD450 nm). Sigmoidal curves were drawn for the dose responses and IC50 values were calculated using the software package GraphPad Prism4 (GraphPad Software, Inc., San Diego, Calif.).

PI3K-beta = PI3K-beta (Homo sapiens, UniProt P42338); assay: Kinase inhibition assay, P-33 labelled ATP phosphate transfer, PI3K-beta; type: biochemical
Chain of PI3K-beta (P42338 whole entry, species assumed): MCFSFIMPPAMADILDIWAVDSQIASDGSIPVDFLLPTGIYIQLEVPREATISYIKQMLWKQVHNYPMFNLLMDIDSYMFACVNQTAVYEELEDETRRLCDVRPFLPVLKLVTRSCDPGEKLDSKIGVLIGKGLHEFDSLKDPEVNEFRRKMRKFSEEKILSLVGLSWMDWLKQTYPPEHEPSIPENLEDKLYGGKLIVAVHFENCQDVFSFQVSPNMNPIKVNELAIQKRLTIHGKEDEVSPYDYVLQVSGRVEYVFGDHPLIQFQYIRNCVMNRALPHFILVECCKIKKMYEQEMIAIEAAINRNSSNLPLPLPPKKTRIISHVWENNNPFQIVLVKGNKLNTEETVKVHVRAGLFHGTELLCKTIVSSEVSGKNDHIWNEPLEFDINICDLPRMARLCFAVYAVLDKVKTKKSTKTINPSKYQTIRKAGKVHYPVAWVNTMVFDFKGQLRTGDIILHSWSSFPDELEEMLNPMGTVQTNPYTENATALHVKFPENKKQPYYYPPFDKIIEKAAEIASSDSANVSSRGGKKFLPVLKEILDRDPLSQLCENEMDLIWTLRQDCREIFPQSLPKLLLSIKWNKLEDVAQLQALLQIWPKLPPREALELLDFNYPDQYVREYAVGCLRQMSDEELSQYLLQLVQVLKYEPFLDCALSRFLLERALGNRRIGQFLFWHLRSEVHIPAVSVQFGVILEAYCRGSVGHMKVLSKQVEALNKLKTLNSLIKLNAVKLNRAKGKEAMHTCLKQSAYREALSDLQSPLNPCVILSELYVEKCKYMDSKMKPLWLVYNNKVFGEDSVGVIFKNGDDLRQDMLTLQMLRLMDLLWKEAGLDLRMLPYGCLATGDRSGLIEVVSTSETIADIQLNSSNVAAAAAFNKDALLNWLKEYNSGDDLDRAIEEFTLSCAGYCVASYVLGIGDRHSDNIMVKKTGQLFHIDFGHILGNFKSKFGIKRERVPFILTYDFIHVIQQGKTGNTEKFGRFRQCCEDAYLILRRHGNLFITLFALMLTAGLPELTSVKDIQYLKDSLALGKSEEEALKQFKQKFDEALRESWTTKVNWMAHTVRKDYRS
Chain of PI3K-beta (P27986 whole entry partner, species assumed): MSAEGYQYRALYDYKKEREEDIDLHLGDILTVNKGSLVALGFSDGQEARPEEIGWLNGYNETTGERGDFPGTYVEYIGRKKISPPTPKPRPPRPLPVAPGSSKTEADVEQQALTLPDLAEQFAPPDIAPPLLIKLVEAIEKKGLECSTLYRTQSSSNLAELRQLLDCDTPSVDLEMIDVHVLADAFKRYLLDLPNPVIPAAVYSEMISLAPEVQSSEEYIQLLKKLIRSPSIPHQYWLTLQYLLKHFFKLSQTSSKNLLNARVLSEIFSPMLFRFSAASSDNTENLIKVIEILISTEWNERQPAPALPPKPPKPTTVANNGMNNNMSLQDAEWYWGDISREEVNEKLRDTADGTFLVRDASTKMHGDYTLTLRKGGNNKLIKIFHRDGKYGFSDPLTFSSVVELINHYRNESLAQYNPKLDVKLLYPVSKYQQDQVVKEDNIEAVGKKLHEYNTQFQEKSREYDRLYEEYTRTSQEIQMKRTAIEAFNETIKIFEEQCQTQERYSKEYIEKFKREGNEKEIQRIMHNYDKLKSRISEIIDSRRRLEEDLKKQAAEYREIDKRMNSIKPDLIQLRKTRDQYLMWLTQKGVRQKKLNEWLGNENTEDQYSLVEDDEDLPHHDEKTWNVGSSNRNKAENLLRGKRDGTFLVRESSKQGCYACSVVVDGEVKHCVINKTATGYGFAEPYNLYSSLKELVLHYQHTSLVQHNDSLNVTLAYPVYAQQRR
Protocol: as §1

PI3K-gamma = PI3K-gamma (Homo sapiens, UniProt P48736); assay: Kinase inhibition assay, P-33 labelled ATP phosphate transfer, PI3K-gamma; type: biochemical
Chain of PI3K-gamma (P48736 whole entry, species assumed): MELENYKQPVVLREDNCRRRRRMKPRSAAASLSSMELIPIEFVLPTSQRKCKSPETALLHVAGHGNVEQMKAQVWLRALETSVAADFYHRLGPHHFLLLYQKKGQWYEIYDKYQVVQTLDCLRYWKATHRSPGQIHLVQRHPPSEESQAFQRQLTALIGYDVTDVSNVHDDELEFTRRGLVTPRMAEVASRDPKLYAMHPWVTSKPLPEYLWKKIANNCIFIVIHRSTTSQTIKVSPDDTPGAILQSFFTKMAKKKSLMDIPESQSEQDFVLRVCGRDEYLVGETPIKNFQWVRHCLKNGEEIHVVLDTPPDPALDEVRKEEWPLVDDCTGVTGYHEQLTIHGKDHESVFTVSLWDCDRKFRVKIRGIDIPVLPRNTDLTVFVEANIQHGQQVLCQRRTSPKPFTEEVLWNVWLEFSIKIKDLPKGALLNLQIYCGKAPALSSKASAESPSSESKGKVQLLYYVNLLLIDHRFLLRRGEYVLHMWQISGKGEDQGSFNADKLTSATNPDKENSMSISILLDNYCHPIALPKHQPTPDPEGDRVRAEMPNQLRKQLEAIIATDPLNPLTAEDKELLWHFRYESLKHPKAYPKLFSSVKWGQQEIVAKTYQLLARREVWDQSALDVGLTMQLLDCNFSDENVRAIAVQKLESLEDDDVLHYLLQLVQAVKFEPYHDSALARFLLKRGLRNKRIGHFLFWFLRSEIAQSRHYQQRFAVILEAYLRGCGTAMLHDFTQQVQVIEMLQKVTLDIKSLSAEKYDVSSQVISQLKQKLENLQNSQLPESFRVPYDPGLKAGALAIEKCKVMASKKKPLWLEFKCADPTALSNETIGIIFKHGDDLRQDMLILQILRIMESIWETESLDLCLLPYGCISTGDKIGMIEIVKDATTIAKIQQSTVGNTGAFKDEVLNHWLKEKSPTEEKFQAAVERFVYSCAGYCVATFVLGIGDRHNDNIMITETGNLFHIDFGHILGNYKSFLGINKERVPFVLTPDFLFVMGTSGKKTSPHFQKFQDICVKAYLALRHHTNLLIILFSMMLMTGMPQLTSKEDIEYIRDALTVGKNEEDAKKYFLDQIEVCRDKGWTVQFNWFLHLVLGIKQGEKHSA
Protocol: as §1

[1] = system: pAKT serine 473 in PC3 cells; assay: IGF-1 stimulated pAKT serine 473 level in PC3 cells (sandwich ELISA); type: cell-based; details: Homo sapiens, PC-3, 0.5 h, 30 minutes compound exposure, termed DM50 in text
Protocol: as §1

PLK-1 = PLK-1 (Homo sapiens, UniProt P53350); assay: Kinase inhibition assay, P-33 labelled ATP phosphate transfer, PLK-1; type: biochemical
Chain of PLK-1 (P53350 whole entry, species assumed): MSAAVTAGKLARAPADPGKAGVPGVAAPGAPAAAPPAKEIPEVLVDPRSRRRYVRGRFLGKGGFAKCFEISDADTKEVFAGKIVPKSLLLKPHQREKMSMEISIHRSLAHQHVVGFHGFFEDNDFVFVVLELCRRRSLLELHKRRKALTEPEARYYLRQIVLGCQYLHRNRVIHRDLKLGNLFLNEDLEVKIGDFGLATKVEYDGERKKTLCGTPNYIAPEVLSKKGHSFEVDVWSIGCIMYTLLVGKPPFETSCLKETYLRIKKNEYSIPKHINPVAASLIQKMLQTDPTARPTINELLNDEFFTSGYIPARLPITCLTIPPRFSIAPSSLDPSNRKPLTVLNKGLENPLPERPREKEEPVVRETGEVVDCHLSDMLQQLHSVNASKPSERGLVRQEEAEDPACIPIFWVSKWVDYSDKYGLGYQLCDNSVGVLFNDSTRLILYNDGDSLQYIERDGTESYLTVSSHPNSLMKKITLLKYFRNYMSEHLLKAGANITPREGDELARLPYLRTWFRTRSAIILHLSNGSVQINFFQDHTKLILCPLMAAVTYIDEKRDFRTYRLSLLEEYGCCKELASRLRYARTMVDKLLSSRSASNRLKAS
Protocol: as §1

PI3K-delta = PI3K-delta (Homo sapiens, UniProt O00329); assay: Kinase inhibition assay, P-33 labelled ATP phosphate transfer, PI3K-delta; type: biochemical
Chain of PI3K-delta (O00329 whole entry, species assumed): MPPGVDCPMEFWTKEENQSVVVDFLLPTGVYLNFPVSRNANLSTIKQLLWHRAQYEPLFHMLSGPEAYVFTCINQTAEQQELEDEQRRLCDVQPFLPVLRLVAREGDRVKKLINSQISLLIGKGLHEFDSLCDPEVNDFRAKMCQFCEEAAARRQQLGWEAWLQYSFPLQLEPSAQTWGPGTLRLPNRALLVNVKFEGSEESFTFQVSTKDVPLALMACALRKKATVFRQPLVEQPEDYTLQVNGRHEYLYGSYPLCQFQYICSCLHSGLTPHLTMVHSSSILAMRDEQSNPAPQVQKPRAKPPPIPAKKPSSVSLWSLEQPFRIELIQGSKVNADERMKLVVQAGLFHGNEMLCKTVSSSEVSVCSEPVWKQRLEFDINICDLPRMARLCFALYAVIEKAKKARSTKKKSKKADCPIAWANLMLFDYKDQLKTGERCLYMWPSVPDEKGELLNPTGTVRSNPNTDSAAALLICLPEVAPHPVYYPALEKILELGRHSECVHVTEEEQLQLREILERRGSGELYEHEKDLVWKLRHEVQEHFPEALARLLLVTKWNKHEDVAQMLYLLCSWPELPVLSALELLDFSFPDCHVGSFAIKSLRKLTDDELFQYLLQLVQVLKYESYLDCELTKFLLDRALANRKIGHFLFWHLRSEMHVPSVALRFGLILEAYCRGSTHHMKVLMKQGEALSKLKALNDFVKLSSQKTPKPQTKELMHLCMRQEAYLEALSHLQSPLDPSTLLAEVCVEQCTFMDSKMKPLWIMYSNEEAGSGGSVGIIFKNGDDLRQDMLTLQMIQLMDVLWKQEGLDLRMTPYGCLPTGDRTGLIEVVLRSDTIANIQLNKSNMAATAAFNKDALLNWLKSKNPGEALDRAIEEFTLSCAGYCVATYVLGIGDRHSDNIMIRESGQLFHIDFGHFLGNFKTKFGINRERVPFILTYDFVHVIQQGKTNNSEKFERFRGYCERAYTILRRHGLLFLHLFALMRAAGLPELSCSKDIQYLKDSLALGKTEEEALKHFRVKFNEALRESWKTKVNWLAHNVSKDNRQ
Chain of PI3K-delta (P27986 whole entry partner, species assumed): as the sequence (P27986 whole entry partner, species assumed) above
Protocol: as §1

BET protein BRD4-1 = BET protein BRD4-1 (Homo sapiens, UniProt O60885); details: S W J Ember 2014; cited from earlier work

`CC[C@H](Nc1ncnc2[nH]cnc12)c1nc2cccc(F)c2c(=O)n1-c1ccccc1` [CAL101] showed an IC50 (BRD4) greater than 50 µM.

`O=c1nc(N2CCOCC2)oc2c(-c3ccccc3)csc12` [Compound 3, 2-morpholino-7-phenyl-4H-thieno[2,3-e][1,3]oxazin-4-one] showed an inhibition at 0.3 µM (mTOR) of 4%, an IC50 (PI3K-alpha) of 1.4 µM and an IC50 (PC3 cells) of 28 µM. It also gave an IC50 (PI3K-beta) of 10 µM, an IC50 (PI3K-gamma) of 5.5 µM and an IC50 [1] of 11 µM. For the same molecule, the IC50 (PLK-1) was 2.3 µM and the IC50 (PI3K-delta) was 1.5 µM.

For `Cc1cnc(Nc2ccc(N3CCN(C)CC3)cc2)nc1Nc1cccc(S(=O)(=O)NC(C)(C)C)c1` [TG101209], the “inhibition of BET protein BRD4-1” value (BET protein BRD4-1) is given as “potently inhibit”.
